As usually defined, the IC50 is the point on the concentration scale where inhibition reaches its midpoint. Lower therefore signals greater potency in that assay.

SMILES strings stand for the structures.

This passage reports IC50 results from patent publication US20260226029A1, “1-(1-Oxo-1,2-Dihydrophthalazin-6-yl)Cycloalkyl-1-Carboxamide Derivatives as MTA-Cooperative Inhibitors of PRMT5” (BeOne Medicines I GmbH, priority 2023, published 2026).

One experiment concerns HCT116-mock-RNA-KO. The experiment in a line: Compounds cell killing in HCT116 isogenic pair (CellTiter-Glo, 6 days), mock-KO (MTAP wildtype) cells. It counts as cell-based. The conditions noted are these: Homo sapiens, HCT-116, 144 h, Cell Titer-Glo, 0-10 μM. From the text: (§1) HCT116 cell line (ATCC, CCL-247) was isolated from the colon of an adult with colon cancer. It has a mutation in codon 13 of the ras proto-oncogene and can be used as a positive control for PCR assays of mutation in this codon. HCT116-MTAP-KO was knocked-out-MTAP-gene based HCT116, and a single clone was passed for this assay. HCT116-mock-RNA-KO was knocked-out-mock-gene based HCT116 with MTAP wildtype genotype. The base medium for HCT116 isogenic pair is RPMI 1640, HEPES (Gibco, 22400105). To make the complete growth medium, add the following components to the base medium: fetal bovine serum to a final concentration of 10% (Gibco, 10099-141C). The cell line was grown in a humidified 5% CO2 atmosphere at 37° C. and regularly tested for the presence of mycoplasma with MycoAlert™ PLUS Mycoplasma Detection Kit (Lonza, LT07-710).
(§2) • Seed HCT116-mock-RNA-KO (4E2/well) or HCT116-MTAP-KO (4E2/well) cells into a 96-well plate (Greiner: 655090), 100 µL/well. • Incubate at 37° C., 5% CO2, overnight. • Add 50 μL fresh growth-medium containing serial dilution of compounds for a final compound concentration of 0-10 μM to each well. • Incubate at 37° C., 5% CO2, 6 days. • The cell viability detected by Cell Titer-Glo (Promega, G7573). Add 70 μL of CellTiter-Glo® reagent in each well. • Incubate at room temperature for 10 minutes to stabilize luminescent signal. • Analyze with Microplate Reader (TECAN, SPARK) and fit IC50 using Prism® 9.

In a further experiment the test system is HCT116-MTAP-KO. The experiment in a line: Compounds cell killing in HCT116 isogenic pair (CellTiter-Glo, 6 days), MTAP-KO cells. It counts as cell-based. Conditions: Homo sapiens, HCT-116, 144 h, Cell Titer-Glo, 0-10 μM.
Source text: as §1, §2
On the technique in general: Cellular ATP, detected with luciferase, serves as a proxy for viable cell number.

For `NCc1n[nH]c(=O)c2ccc(C3(C(=O)N(Cc4ccc(-c5c(F)cccc5Cl)cn4)C4CCCc5cccnc54)CC3)cc12` (centres unmarked) [Example 26, 1-(4-(aminomethyl)-1-oxo-1,2-dihydrophthalazin-6-yl)-N-((5-(2-chloro-6-fluorophenyl)pyridin-2-yl)methyl)-N-(5,6,7,8-tetrahydroquinolin-8-yl)cyclopropane-1-carboxamide], the IC50 with HCT116-mock-RNA-KO stood at 2780 nM; in the experiment on HCT116-MTAP-KO it was 77 nM.
Take `NCc1n[nH]c(=O)c2ccc(C3(C(=O)N(Cc4ccc5c(Br)cccc5n4)C4CCCc5cccnc54)CC3)cc12` (centres unmarked) [Example 27, 1-(4-(aminomethyl)-1-oxo-1,2-dihydrophthalazin-6-yl)-N-((5-bromoquinolin-2-yl)methyl)-N-(5,6,7,8-tetrahydroquinolin-8-yl)cyclopropane-1-carboxamide]: the IC50 in the experiment on HCT116-mock-RNA-KO turned out to be 7290 nM; in the experiment on HCT116-MTAP-KO, 415 nM.
Take `N#Cc1cccc(F)c1-c1ccc(CN(C(=O)C2(c3ccc4c(=O)[nH]nc(CN)c4c3)CC2)C2CCCc3cccnc32)nc1` (centres unmarked) [Example 28, 1-(4-(aminomethyl)-1-oxo-1,2-dihydrophthalazin-6-yl)-N-((5-(2-cyano-6-fluorophenyl)pyridin-2-yl)methyl)-N-(5,6,7,8-tetrahydroquinolin-8-yl)cyclopropane-1-carboxamide]: the 50% inhibitory concentration (IC50) with HCT116-mock-RNA-KO was 3210 nM; in the experiment with HCT116-MTAP-KO, 102 nM.
For `CC(c1ncccn1)N(Cc1ccc(C(F)(F)F)cn1)C(=O)C1(c2ccc3c(=O)[nH]nc(CN)c3c2)CC1` (centres unmarked) [Example 29, 1-(4-(aminomethyl)-1-oxo-1,2-dihydrophthalazin-6-yl)-N-(1-(pyrimidin-2-yl)ethyl)-N-((5-(trifluoromethyl)pyridin-2-yl)methyl)cyclopropane-1-carboxamide], in that order: > 10000 nM and 1440 nM.
For `COCC(COC)N(Cc1ccc(-c2c(F)cccc2F)cn1)C(=O)C1(c2ccc3c(=O)[nH]nc(CN)c3c2)CC1` [Example 30, 1-(4-(aminomethyl)-1-oxo-1,2-dihydrophthalazin-6-yl)-N-((5-(2,6-difluorophenyl)pyridin-2-yl)methyl)-N-(1,3-dimethoxypropan-2-yl)cyclopropane-1-carboxamide], in that order: > 10000 nM and 254 nM.
Take `NCc1n[nH]c(=O)c2ccc(C3(C(=O)N(Cc4ccc(S(F)(F)(F)(F)F)cc4)[C@@H]4CCCc5cccnc54)CC3)cc12` [Example 31, (R)-1-(4-(aminomethyl)-1-oxo-1,2-dihydrophthalazin-6-yl)-N-(4-(pentafluoro-λ^6-sulfanyl)benzyl)-N-(5,6,7,8-tetrahydroquinolin-8-yl)cyclopropane-1-carboxamide]: the IC50 with HCT116-mock-RNA-KO was 3150 nM; in the experiment with HCT116-MTAP-KO, 18 nM.
On the same counts, the results for `NCc1n[nH]c(=O)c2ccc(C3(C(=O)N(Cc4ccc(C(F)(F)F)cn4)C4CCCc5c(C6CC6)ccnc54)CC3)cc12` (centres unmarked) [Example 32, 1-(4-(aminomethyl)-1-oxo-1,2-dihydrophthalazin-6-yl)-N-(4-cyclopropyl-5,6,7,8-tetrahydroquinolin-8-yl)-N-((5-(trifluoromethyl)pyridin-2-yl)methyl)cyclopropane-1-carboxamide] are 7330 nM and 140 nM.
For `NCc1n[nH]c(=O)c2ccc(C3(C(=O)N(Cc4ccc(-c5c(F)cccc5F)cn4)C4CCc5cccnc54)CC3)cc12` (centres unmarked) [Example 33, 1-(4-(aminomethyl)-1-oxo-1,2-dihydrophthalazin-6-yl)-N-((5-(2,6-difluorophenyl)pyridin-2-yl)methyl)-N-(6,7-dihydro-5H-cyclopenta[b]pyridin-7-yl)cyclopropane-1-carboxamide], in that order: 9800 nM and 150 nM.
For the compound `NCc1n[nH]c(=O)c2ccc(C3(C(=O)N(Cc4ccc(Oc5c(F)cccc5F)cn4)[C@@H]4CCCc5cccnc54)CC3)cc12` [Example 34, (R)-1-(4-(aminomethyl)-1-oxo-1,2-dihydrophthalazin-6-yl)-N-((5-(2,6-difluorophenoxy)pyridin-2-yl)methyl)-N-(5,6,7,8-tetrahydroquinolin-8-yl)cyclopropane-1-carboxamide], the IC50 was determined as 3650 nM with HCT116-mock-RNA-KO and 66 nM in the experiment on HCT116-MTAP-KO.
As for `NCc1n[nH]c(=O)c2ccc(C3(C(=O)N(Cc4ccc(C(F)(F)F)cn4)C4CCCc5cccnc54)CCC3)cc12` (centres unmarked) [Example 35, 1-(4-(aminomethyl)-1-oxo-1,2-dihydrophthalazin-6-yl)-N-(5,6,7,8-tetrahydroquinolin-8-yl)-N-((5-(trifluoromethyl)pyridin-2-yl)methyl)cyclobutane-1-carboxamide], the IC50 was > 10000 nM in the experiment with HCT116-mock-RNA-KO and 924 nM in the experiment with HCT116-MTAP-KO.
